Laboratory results taken from ChEMBL document CHEMBL3045687, “Anti-microbial benzimidazole derivatives: synthesis and in vitro biological evaluation” (2012).

Legend:
Type in all cases: functional
Escherichia coli = assay: Antimicrobial activity against Escherichia coli assessed as zone of inhibition at 12.5 ug/ml after 18 to 24 hr by two-fold dilution technique relative to control
Candida albicans = assay: Antimicrobial activity against Candida albicans assessed as zone of inhibition at 25 ug/ml after 48 hr by two-fold dilution technique relative to control
Staphylococcus aureus = assay: Antimicrobial activity against Staphylococcus aureus assessed as zone of inhibition at 12.5 ug/ml after 18 to 24 hr by two-fold dilution technique relative to control

COc1ccc(/C=C/c2nc3cc(Cl)ccc3[nH]2)cc1OC
inhibition at 12.5 µg/mL (Escherichia coli): 80.5%
inhibition at 25 µg/mL (Candida albicans): 92.4%
inhibition at 12.5 µg/mL (Staphylococcus aureus): 75.2%

O=[N+]([O-])c1ccc2[nH]c(/C=C/c3ccc(O)cc3)nc2c1
inhibition at 12.5 µg/mL (Escherichia coli): 76.9%
inhibition at 25 µg/mL (Candida albicans): 75%
inhibition at 12.5 µg/mL (Staphylococcus aureus): 72.1%

Clc1ccc2[nH]c(/C=C/c3ccccc3)nc2c1
inhibition at 12.5 µg/mL (Escherichia coli): 77.7%
inhibition at 25 µg/mL (Candida albicans): 88.5%
inhibition at 12.5 µg/mL (Staphylococcus aureus): 76.2%

Oc1ccc(/C=C/c2nc3cc(Cl)ccc3[nH]2)cc1
inhibition at 12.5 µg/mL (Escherichia coli): 79.9%
inhibition at 25 µg/mL (Candida albicans): 75.6%
inhibition at 12.5 µg/mL (Staphylococcus aureus): 70.8%

O=C(O)c1cn(C2CC2)c2cc(N3CCNCC3)c(F)cc2c1=O [CIPROFLOXACIN]
zone of inhibition at 12.5 µg/mL (Escherichia coli; read-out: DIZ): 15.9 mm
zone of inhibition at 12.5 µg/mL (Staphylococcus aureus; read-out: DIZ): 14.4 mm

O=[N+]([O-])c1ccc(/C=C/c2nc3cc([N+](=O)[O-])ccc3[nH]2)cc1
inhibition at 12.5 µg/mL (Escherichia coli): 77.1%
inhibition at 25 µg/mL (Candida albicans): 75.3%
inhibition at 12.5 µg/mL (Staphylococcus aureus): 69.7%

O=[N+]([O-])c1ccc2[nH]c(/C=C/c3ccc(Cl)cc3)nc2c1
inhibition at 12.5 µg/mL (Escherichia coli): 80.7%
inhibition at 25 µg/mL (Candida albicans): 84.2%
inhibition at 12.5 µg/mL (Staphylococcus aureus): 82.1%

OC(Cn1cncn1)(Cn1cncn1)c1ccc(F)cc1F [FLUCONAZOLE]
zone of inhibition at 25 µg/mL (Candida albicans; read-out: DIZ): 13.4 mm

COc1ccc(/C=C/c2nc3cc([N+](=O)[O-])ccc3[nH]2)c(OC)c1OC
inhibition at 12.5 µg/mL (Escherichia coli): 76.6%
inhibition at 25 µg/mL (Candida albicans): 82.5%
inhibition at 12.5 µg/mL (Staphylococcus aureus): 75.2%

COc1ccc(/C=C/c2nc3cc(Cl)ccc3[nH]2)c(OC)c1OC
inhibition at 12.5 µg/mL (Escherichia coli): 80.5%
inhibition at 25 µg/mL (Candida albicans): 93.1%
inhibition at 12.5 µg/mL (Staphylococcus aureus): 72.7%
